Activity calls are given as the source filed them. The rule behind the calls is not given here.
Columns and labels:
[1] = tested on: OVCAR-8; test: Cell cycle arrest in human OVCAR8 cells assessed as accumulation at G0/G1 phase at 10 uM incubated for 24 hrs by propidium iodide staining based flow cytometry (reference value: 67.06 +/- 1.42%); format: functional
[2] = tested on: OVCAR-8; test: Cell cycle arrest in human OVCAR8 cells assessed as accumulation at S phase at 5 uM incubated for 24 hrs by propidium iodide staining based flow cytometry (reference value: 7.1 +/- 0.86%); format: functional
[3] = tested on: OVCAR-8; test: Cell cycle arrest in human OVCAR8 cells assessed as accumulation at S phase at 10 uM incubated for 24 hrs by propidium iodide staining based flow cytometry (reference value: 7.1 +/- 0.86%); format: functional
[4] = tested on: HCT-116; test: Cytotoxicity against human HCT116 cells assessed as reduction in cell viability incubated for 72 hrs by MTT assay; format: functional, cell-based; settings: HCT-116, 72 h
[5] = tested on: OVCAR-8; test: Cell cycle arrest in human OVCAR8 cells assessed as accumulation at G2/M phase at 5 uM incubated for 24 hrs by propidium iodide staining based flow cytometry (reference value: 25.78 +/- 0.71%); format: functional
[6] = tested on: OVCAR-8; test: Cytotoxicity against human OVCAR8 cells assessed as reduction in cell viability at 1 to 4 uM measured upto 98 hrs by xcCELLigence RTCA analysis; format: functional, cell-based
[7] = tested on: OVCAR-8; test: Cell cycle arrest in human OVCAR8 cells assessed as accumulation at G2/M phase at 10 uM incubated for 24 hrs by propidium iodide staining based flow cytometry (reference value: 25.78 +/- 0.71%); format: functional
[8] = tested on: OVCAR-8; test: Cytotoxicity against human OVCAR8 cells assessed as reduction in cell viability incubated for 72 hrs by MTT assay; format: functional, cell-based; settings: OVCAR-8, 72 h
[9] = tested on: SF-295; test: Cytotoxicity against human SF295 cells assessed as reduction in cell viability incubated for 72 hrs by MTT assay; format: functional, cell-based; settings: SF-295, 72 h
[10] = tested on: HL-60; test: Cytotoxicity against human HL60 cells assessed as reduction in cell viability incubated for 72 hrs by MTT assay; format: functional, cell-based; settings: HL-60, 72 h
[11] = tested on: OVCAR-8; test: Cell cycle arrest in human OVCAR8 cells assessed as accumulation at G0/G1 phase at 5 uM incubated for 24 hrs by propidium iodide staining based flow cytometry (reference value: 67.06 +/- 1.42%); format: functional
[12] = tested on: OVCAR-8; test: Induction of apoptosis in human OVCAR8 cells assessed as increase in apoptotic cells at 0.6 uM incubated for 48 hrs by acridine orange and ethidium bromide dye based fluorescence microscopy analysis; format: functional, cell-based
[13] = tested on: OVCAR-8; test: Induction of apoptosis in human OVCAR8 cells assessed as reduction in cell viability at 0.6 uM incubated for 48 hrs by acridine orange and ethidium bromide dye based fluorescence microscopy analysis; format: functional
[14] = tested on: OVCAR-8; test: Induction of apoptosis in human OVCAR8 cells assessed as increase in apoptotic cells incubated for 48 hrs by acridine orange and ethidium bromide dye based fluorescence microscopy analysis; format: functional, cell-based
[15] = tested on: OVCAR-8; test: Cell cycle arrest in human OVCAR8 cells assessed as accumulation at G2/M phase at 2.5 uM in presence of PTX incubated for 24 hrs by propidium iodide staining based flow cytometry (reference value: 25.78 +/- 0.71%); format: functional
[16] = tested on: Lytechinus variegatus; test: Antimitotic activity against sea urchin eggs assessed as inhibition of egg development at first cleavage; format: functional, organism-based
[17] = tested on: OVCAR-8; test: Cell cycle arrest in human OVCAR8 cells assessed as accumulation at G0/G1 phase at 2.5 uM in presence of PTX incubated for 24 hrs by propidium iodide staining based flow cytometry (reference value: 67.06 +/- 1.42%); format: functional
[18] = tested on: OVCAR-8; test: Induction of apoptosis in human OVCAR8 cells assessed as reduction in cell viability incubated for 48 hrs by acridine orange and ethidium bromide dye based fluorescence microscopy analysis; format: functional
[19] = tested on: OVCAR-8; test: Cell cycle arrest in human OVCAR8 cells assessed as accumulation at S phase at 2.5 uM incubated for 24 hrs by propidium iodide staining based flow cytometry (reference value: 7.1 +/- 0.86%); format: functional
[20] = tested on: OVCAR-8; test: Cytotoxicity against human OVCAR8 cells assessed as reduction in cell viability measured upto 98 hrs by xcCELLigence RTCA analysis; format: functional, cell-based
[21] = tested on: OVCAR-8; test: Cell cycle arrest in human OVCAR8 cells assessed as accumulation at G2/M phase at 2.5 uM incubated for 24 hrs by propidium iodide staining based flow cytometry (reference value: 25.78 +/- 0.71%); format: functional
[22] = Cytotoxicity against human PBMC assessed as cell viability at 10 ug/ml incubated for 72 hrs by trypan blue dye based assay; settings: read-out: Activity
[23] = tested on: MCF7; test: Cell cycle arrest in human MCF7 cells assessed as increase in accumulation at G2/M phase at 8 uM incubated for 24 hrs by propidium iodide staining based flow cytometry relative to control; format: functional
[24] = tested on: OVCAR-8; test: Induction of apoptosis in human OVCAR8 cells assessed as chromatin condensation at 20 to 40 uM incubated for 48 hrs by hematoxylin and eosin staining based […] analysis; format: functional, cell-based
[25] = tested on: OVCAR-8; test: Cell cycle arrest in human OVCAR8 cells assessed as accumulation at S phase at 2.5 uM in presence of PTX incubated for 24 hrs by propidium iodide staining based flow cytometry (reference value: 7.1 +/- 0.86%); format: functional
[26] = tested on: OVCAR-8; test: Cell cycle arrest in human OVCAR8 cells assessed as accumulation at G0/G1 phase at 2.5 uM incubated for 24 hrs by propidium iodide staining based flow cytometry (reference value: 67.06 +/- 1.42%); format: functional
[27] = tested on: Lytechinus variegatus; test: Antimitotic activity against sea urchin eggs assessed as inhibition of development at second cleavage; format: functional, organism-based
[28] = tested on: Lytechinus variegatus; test: Antimitotic activity against sea urchin eggs assessed as inhibition of egg development at blastulation stage; format: functional, organism-based
[29] = tested on: OVCAR-8; test: Induction of apoptosis in human OVCAR8 cells assessed as reduction in cell volume at 0.03 uM incubated for 48 hrs by hematoxylin and eosin staining based […] analysis; format: functional
[30] = tested on: OVCAR-8; test: Induction of apoptosis in human OVCAR8 cells assessed as nuclear fragmentation at 0.03 uM incubated for 48 hrs by hematoxylin and eosin staining based […] analysis; format: functional, cell-based
[31] = tested on: OVCAR-8; test: Induction of apoptosis in human OVCAR8 cells assessed as reduction in cell viability at 0.03 uM incubated for 48 hrs by acridine orange and ethidium bromide dye based fluorescence microscopy analysis; format: functional
[32] = tested on: OVCAR-8; test: Cell cycle arrest in human OVCAR8 cells assessed as accumulation at S phase at 0.05 uM incubated for 24 hrs by propidium iodide staining based flow cytometry (reference value: 7.1 +/- 0.86%); format: functional
[33] = tested on: OVCAR-8; test: Cell cycle arrest in human OVCAR8 cells assessed as accumulation at G2/M phase at 0.05 uM incubated for 24 hrs by propidium iodide staining based flow cytometry (reference value: 25.78 +/- 0.71%); format: functional
[34] = tested on: OVCAR-8; test: Cytotoxicity against human OVCAR8 cells assessed as reduction in cell viability at 0.05 uM measured upto 98 hrs by xcCELLigence RTCA analysis; format: functional, cell-based
[35] = tested on: OVCAR-8; test: Cell cycle arrest in human OVCAR8 cells assessed as accumulation at G0/G1 phase at 0.05 uM incubated for 24 hrs by propidium iodide staining based flow cytometry (reference value: 67.06 +/- 1.42%); format: functional
[36] = tested on: OVCAR-8; test: Induction of apoptosis in human OVCAR8 cells assessed as increase in apoptotic cells at 0.03 uM incubated for 48 hrs by acridine orange and ethidium bromide dye based fluorescence microscopy analysis; format: functional, cell-based
[37] = tested on: OVCAR-8; test: Induction of apoptosis in human OVCAR8 cells assessed as chromatin condensation at 0.03 uM incubated for 48 hrs by hematoxylin and eosin staining based […] analysis; format: functional, cell-based

Compound: COc1ccc2c(c1)OC1c3cc(OC)c(OC)cc3OCC21 (racemic)
- Activity [1]: 46.72%
- Activity [2]: 10.02%
- Activity [3]: 10.93%
- IC50 [4]: 11.4 µM
- Activity [5]: 37.16%
- Activity [6]: inactive
- Activity [7]: 42.06%
- IC50 [8]: 5.93 µM
- IC50 [9]: 14 µM
- IC50 [10]: 0.76 µM
- Activity [11]: 52.61%

Compound: COc1ccc2c(c1)O[C@H]1c3cc(OC)c(OC)cc3OC[C@@H]21
- IC50 [4]: 38.5 µM
- IC50 [8]: 82.8 µM
- IC50 [9]: 32.8 µM
- IC50 [10]: 82.8 µM

Compound: COc1cccc2c1C(=O)c1c(O)c3c(c(O)c1C2=O)C[C@@](O)(C(=O)CO)C[C@@H]3O[C@H]1C[C@H](N)[C@H](O)[C@H](C)O1 [DOXORUBICIN]
- Activity [12]: Active
- IC50 [9]: 0.08 µM
- IC50 [10]: 0.04 µM
- Activity [13]: Active

Compound: COc1ccc2c(c1)O[C@@H]1c3cc(OC)c(OC)cc3OC[C@H]21
- Activity [14]: Dose-dependent effect
- Activity [1]: 10.84%
- Activity [15]: 78.62%
- Activity [2]: 8.76%
- Activity [3]: 9.92%
- IC50 [4]: 2.42 µM
- IC50 [16]: 0.00794 µM
- Activity [5]: 75.24%
- Activity [17]: 10.98%
- Activity [18]: Dose-dependent effect
- Activity [7]: 79.13%
- Activity [19]: 9.1%
- Activity [20]: Dose-dependent effect
- Activity [21]: 32.71%
- viability at 72 h, 10 ug/ml [22]: 81%
- Activity [23]: 32%
- Activity [24]: Active
- Activity [25]: 10.39%
- IC50 [8]: 1.79 µM
- IC50 [9]: 3.61 µM
- Activity [26]: 58.16%
- IC50 [27]: 0.0123 µM
- IC50 [10]: 0.2 µM
- IC50 [28]: 0.0107 µM
- Activity [11]: 15.83%

Compound: CC(=O)O[C@H]1C(=O)[C@@]2(C)[C@H]([C@H](OC(=O)c3ccccc3)[C@]3(O)C[C@H](OC(=O)[C@H](O)[C@@H](NC(=O)c4ccccc4)c4ccccc4)C(C)=C1C3(C)C)[C@]1(OC(C)=O)CO[C@@H]1C[C@@H]2O [PACLITAXEL]
- Activity [29]: Active
- Activity [30]: Active
- Activity [31]: Active
- Activity [32]: 15.72%
- Activity [33]: 49.97%
- Activity [34]: Active
- Activity [35]: 34.28%
- Activity [36]: Active
- Activity [37]: Active

Reference: ChEMBL document CHEMBL4616708, “Antitumor Potential of the Isoflavonoids (+)- and (-)-2,3,9-Trimethoxypterocarpan: Mechanism-of-Action Studies” (ACS Med Chem Lett, 2020)
